Assay results: US8685977B2, “Chemical compounds” (Pfizer Limited, priority 2010, dated 2014)

Target: T1, Nav1.7 (or SCN9A) channel (Homo sapiens, UniProt Q15858)
T1 construct: expressed in transfected cells
Assay: Nav1.7 PatchXpress 7000 automated electrophysiology assay (HEK cells stably expressing hSCN9A)
Assay type: cell-based
Conditions: voltage-clamped at V1/2 of inactivation, read-out: Nav1.7 EIC50
Method in brief: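 Automated whole-cell clamp (PatchXpress) of HEK cells stably expressing hSCN9A, at 22-24 °C, in extracellular buffer at pH 7.4. Cells were held at the measured V1/2 of inactivation, then stepped to 0 mV for 20 ms. Single-concentration % inhibition gave EIC50 = concentration × (100 − %inhibition)/%inhibition, excluding <20% or >80%.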

T1 sequence (Q15858 whole entry): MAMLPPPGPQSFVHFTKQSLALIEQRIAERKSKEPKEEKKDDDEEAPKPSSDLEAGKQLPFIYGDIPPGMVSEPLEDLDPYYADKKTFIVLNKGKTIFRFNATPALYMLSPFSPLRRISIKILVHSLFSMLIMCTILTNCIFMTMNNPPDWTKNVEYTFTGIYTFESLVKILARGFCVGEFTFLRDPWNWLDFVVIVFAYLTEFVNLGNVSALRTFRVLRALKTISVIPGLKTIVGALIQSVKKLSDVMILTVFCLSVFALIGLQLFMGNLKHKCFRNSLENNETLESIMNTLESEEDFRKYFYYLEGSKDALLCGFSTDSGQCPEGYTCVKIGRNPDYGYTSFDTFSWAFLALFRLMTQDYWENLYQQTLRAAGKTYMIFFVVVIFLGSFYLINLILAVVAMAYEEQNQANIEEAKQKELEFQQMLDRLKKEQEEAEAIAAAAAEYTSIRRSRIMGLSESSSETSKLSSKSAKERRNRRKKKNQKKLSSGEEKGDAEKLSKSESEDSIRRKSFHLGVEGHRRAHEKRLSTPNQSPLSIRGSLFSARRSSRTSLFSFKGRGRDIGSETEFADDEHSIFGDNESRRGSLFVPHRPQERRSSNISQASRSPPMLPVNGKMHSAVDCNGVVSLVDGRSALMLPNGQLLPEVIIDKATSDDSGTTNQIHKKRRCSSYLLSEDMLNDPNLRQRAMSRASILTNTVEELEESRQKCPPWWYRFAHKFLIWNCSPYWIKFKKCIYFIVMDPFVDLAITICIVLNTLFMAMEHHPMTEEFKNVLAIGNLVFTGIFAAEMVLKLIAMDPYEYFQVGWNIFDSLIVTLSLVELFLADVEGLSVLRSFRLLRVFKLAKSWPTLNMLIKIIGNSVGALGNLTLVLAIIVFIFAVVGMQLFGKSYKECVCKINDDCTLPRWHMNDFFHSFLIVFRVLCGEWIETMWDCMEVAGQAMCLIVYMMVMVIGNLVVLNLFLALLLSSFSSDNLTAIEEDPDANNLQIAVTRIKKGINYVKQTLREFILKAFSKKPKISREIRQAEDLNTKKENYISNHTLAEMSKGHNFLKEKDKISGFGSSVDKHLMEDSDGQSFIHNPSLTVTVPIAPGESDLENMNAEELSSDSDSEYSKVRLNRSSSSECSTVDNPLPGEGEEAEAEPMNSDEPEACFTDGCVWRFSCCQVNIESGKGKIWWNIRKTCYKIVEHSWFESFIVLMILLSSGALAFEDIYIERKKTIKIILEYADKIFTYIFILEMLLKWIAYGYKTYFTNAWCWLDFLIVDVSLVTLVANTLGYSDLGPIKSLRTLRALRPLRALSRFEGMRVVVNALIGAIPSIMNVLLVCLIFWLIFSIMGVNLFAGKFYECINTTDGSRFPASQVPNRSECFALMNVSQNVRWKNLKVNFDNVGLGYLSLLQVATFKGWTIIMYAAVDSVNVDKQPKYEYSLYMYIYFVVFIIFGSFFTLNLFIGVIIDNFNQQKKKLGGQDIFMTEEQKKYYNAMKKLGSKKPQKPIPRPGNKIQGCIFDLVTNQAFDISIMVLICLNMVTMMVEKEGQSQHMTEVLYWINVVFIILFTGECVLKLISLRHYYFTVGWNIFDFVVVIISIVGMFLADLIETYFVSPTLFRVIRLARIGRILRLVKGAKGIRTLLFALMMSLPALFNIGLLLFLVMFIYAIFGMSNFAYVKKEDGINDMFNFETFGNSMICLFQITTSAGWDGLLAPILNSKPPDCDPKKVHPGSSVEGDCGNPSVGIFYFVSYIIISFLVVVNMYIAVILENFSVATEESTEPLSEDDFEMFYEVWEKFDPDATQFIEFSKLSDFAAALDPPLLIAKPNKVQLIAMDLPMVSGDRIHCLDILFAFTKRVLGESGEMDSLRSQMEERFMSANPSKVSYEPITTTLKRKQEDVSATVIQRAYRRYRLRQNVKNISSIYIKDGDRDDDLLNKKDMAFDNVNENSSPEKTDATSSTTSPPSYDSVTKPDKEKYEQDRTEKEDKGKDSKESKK

SMILES	IC50 [nM]
CS(=O)(=O)NC(=O)c1cc(F)c(Oc2ccc(Cl)c(F)c2)cc1F [Example 143, 4-(4-chloro-3-fluorophenoxy)-2,5-difluoro-N-(methylsulfonyl)benzamide]	4700
Cc1ccccc1Oc1cc(F)c(C(=O)NS(C)(=O)=O)cc1F [Example 111, 2,5-difluoro-4-(2-methylphenoxy)-N-(methylsulfonyl)benzamide]	> 3000
CS(=O)(=O)NC(=O)c1c(F)cc(Oc2ccc(Cl)c(C(F)(F)F)c2)c(F)c1F [Example 32, 4-(4-chloro-3-(trifluoromethyl)phenoxy)-2,3,6-trifluoro-N-(methylsulfonyl)benzamide]	> 1000
Cc1cc(F)ccc1Oc1ccc(C(=O)NS(C)(=O)=O)cc1 [Example 201, 4-(4-fluoro-2-methylphenoxy)-N-(methylsulfonyl)benzamide]	20000
CCOc1ccccc1Oc1cc(F)c(C(=O)NS(C)(=O)=O)cc1F [Example 98, 4-(2-ethoxyphenoxy)-2,5-difluoro-N-(methylsulfonyl)benzamide]	> 1000
Cc1ccc(F)cc1Oc1ccc(C(=O)NS(C)(=O)=O)cc1 [Example 179, 4-(5-fluoro-2-methylphenoxy)-N-(methylsulfonyl)benzamide]	> 10000
CS(=O)(=O)NC(=O)c1cc(F)c(Oc2ccccc2F)cc1F [Example 107, 2,5-difluoro-4-(2-fluorophenoxy)-N-(methylsulfonyl)benzamide]	9300
Cc1ccc(Cl)c(Oc2cc(F)c(C(=O)NS(C)(=O)=O)cc2F)c1 [Example 110, 4-(2-chloro-5-methylphenoxy)-2,5-difluoro-N-(methylsulfonyl)benzamide]	> 1000
COc1cc(C)ccc1Oc1ccc(C(=O)NS(C)(=O)=O)cc1 [Example 189, 4-(2-methoxy-4-methylphenoxy)-N-(methylsulfonyl)benzamide]	> 10000
CS(=O)(=O)NC(=O)c1cc(F)c(Oc2ccc(F)cc2C#N)cc1F [Example 130, 4-(2-cyano-4-fluorophenoxy)-2,5-difluoro-N-(methylsulfonyl)benzamide]	> 3000
Cn1ccc(-c2ccccc2Oc2ccc(C(=O)NS(C)(=O)=O)cc2)n1 [Example 197, 4-[2-(1-methyl-1H-pyrazol-3-yl)phenoxy]-N-(methylsulfonyl)benzamide]	> 10000
CS(=O)(=O)NC(=O)c1ccc(Oc2ccccc2C(F)(F)F)c(Cl)c1 [Example 278, 3-chloro-N-(methylsulfonyl)-4-[2-(trifluoromethyl)phenoxy]benzamide]	6600
CS(=O)(=O)NC(=O)c1ccc(Oc2ccccc2F)cc1 [Example 171, 4-(2-fluorophenoxy)-N-(methylsulfonyl)benzamide]	> 10000
COc1ccc(C)cc1Oc1cc(F)c(C(=O)NS(C)(=O)=O)cc1F [Example 86, 2,5-difluoro-4-(2-methoxy-5-methylphenoxy)-N-(methylsulfonyl)benzamide]	> 1000
COc1ccccc1Sc1ccc(C(=O)NS(C)(=O)=O)cc1 [Example 324, 4-(2-methoxyphenylthio)-N-(methylsulfonyl)benzamide]	> 3000
CS(=O)(=O)NC(=O)c1ccc(Oc2ccc(C#N)c(C#N)c2)cc1 [Example 25, 4-(3,4-dicyanophenoxy)-N-(methylsulfonyl)benzamide]	> 10000
Cc1cccc(C)c1Oc1ccc(C(=O)NS(C)(=O)=O)cc1 [Example 193, 4-(2,6-dimethylphenoxy)-N-(methylsulfonyl)benzamide]	> 10000
COc1cc(Oc2ccc(Cl)c(F)c2)ccc1C(=O)NS(C)(=O)=O [Example 228, 4-(4-chloro-3-fluorophenoxy)-2-methoxy-N-(methylsulfonyl)benzamide]	5400
CCOc1cc(C)ccc1Oc1cc(F)c(C(=O)NS(C)(=O)=O)cc1F [Example 148, 4-(2-ethoxy-4-methylphenoxy)-2,5-difluoro-N-(methylsulfonyl)benzamide]	> 1000
CS(=O)(=O)NC(=O)c1cc(F)c(Oc2cccc(C(F)(F)F)c2)cc1F [Example 138, 2,5-difluoro-N-(methylsulfonyl)-4-[3-(trifluoromethyl)phenoxy]benzamide]	6600
COc1ccc(Cl)c(Oc2ccc(C(=O)NS(C)(=O)=O)cc2)c1 [Example 194, 4-(2-chloro-5-methoxyphenoxy)-N-(methylsulfonyl)benzamide]	> 10000
CS(=O)(=O)NC(=O)c1c(F)cc(Oc2ccc(Cl)c(C(F)(F)F)c2)cc1F [Example 31, 4-(4-chloro-3-(trifluoromethyl)phenoxy)-2,6-difluoro-N-(methylsulfonyl)benzamide]	5700

The remaining compounds from weak to strong by IC50, led by results:

IC50 [nM]	SMILES
3300	COc1c(C(=O)NS(C)(=O)=O)ccc(Oc2cccc(Cl)c2)c1F [Example 225, 4-(3-chlorophenoxy)-3-fluoro-2-methoxy-N-(methylsulfonyl)benzamide]
2800	COc1cc(Cl)c(Cl)cc1Oc1cc(F)c(C(=O)NS(C)(=O)=O)cc1F [Example 70, 4-(4,5-dichloro-2-methoxyphenoxy)-2,5-difluoro-N-(methylsulfonyl)benzamide]
2000	CS(=O)(=O)NC(=O)c1cc(F)c(Oc2ccc(Cl)cc2Cl)cc1F [Example 123, 4-(2,4-dichlorophenoxy)-2,5-difluoro-N-(methylsulfonyl)benzamide]
1500	CS(=O)(=O)NC(=O)c1ccc(Oc2ccc(Cl)c(Cl)c2)c(F)c1 [Example 34, 4-(3,4-dichlorophenoxy)-3-fluoro-N-(methylsulfonyl)benzamide]
1400	Cc1ccc(Oc2ccc(C(=O)NS(C)(=O)=O)cc2)cc1Cl [Example 198, 4-(3-chloro-4-methylphenoxy)-N-(methylsulfonyl)benzamide]
1300	CS(=O)(=O)NC(=O)c1ccc(Oc2ccc(-c3ccccc3)cc2)cc1 [Example 245, 4-(biphenyl-4-yloxy)-N-(methylsulfonyl)benzamide]
1300	Cc1ccc(Oc2ccc(C(=O)NS(C)(=O)=O)cc2Cl)cc1 [Example 215, 3-chloro-4-(4-methylphenoxy)-N-(methylsulfonyl)benzamide]
1200	CS(=O)(=O)NC(=O)c1ccc(Oc2ccccc2)c(Cl)c1 [Example 252, 3-chloro-N-(methylsulfonyl)-4-phenoxybenzamide]
1100	CS(=O)(=O)NC(=O)c1cc(F)c(Oc2ccc(Cl)c(C(F)(F)F)c2)c(F)c1 [Example 45, 4-(4-chloro-3-(trifluoromethyl)phenoxy)-3,5-difluoro-N-(methylsulfonyl)benzamide]
1100	CS(=O)(=O)NC(=O)c1cc(F)c(Oc2ccc(OC(F)(F)F)cc2)cc1F [Example 100, 2,5-difluoro-N-(methylsulfonyl)-4-[4-(trifluoromethoxy)phenoxy]benzamide]
960	Cc1cc(C(=O)NS(C)(=O)=O)ccc1Oc1cccc(Cl)c1 [Example 238, 4-(3-chlorophenoxy)-3-methyl-N-(methylsulfonyl)benzamide]
850	COc1c(C(=O)NS(C)(=O)=O)ccc(Oc2ccc(Cl)c(Cl)c2)c1F [Example 234, 4-(3,4-dichlorophenoxy)-3-fluoro-2-methoxy-N-(methylsulfonyl)benzamide]
620	CS(=O)(=O)NC(=O)c1cc(Cl)c(Oc2cccc(Cl)c2)cc1F [Example 292, 5-chloro-4-(3-chlorophenoxy)-2-fluoro-N-(methylsulfonyl)benzamide]
450	CS(=O)(=O)NC(=O)c1cc(F)c(Oc2ccc(Cl)c(C(F)(F)F)c2)cc1F [Example 75, 4-(4-chloro-3-(trifluoromethyl)phenoxy)-2,5-difluoro-N-(methylsulfonyl)benzamide]
430	CS(=O)(=O)NC(=O)c1cc(Cl)c(Oc2ccc(Cl)cc2OC(F)F)cc1F [Example 11, 5-chloro-4-[4-chloro-2-(difluoromethoxy)phenoxy]-2-fluoro-N-(methylsulfonyl)benzamide]
200	CS(=O)(=O)NC(=O)c1cc(F)c(Oc2ccc(Cl)c(OC(F)(F)F)c2)cc1F [Example 56, 4-(4-chloro-3-(trifluoromethoxy)phenoxy)-2,5-difluoro-N-(methylsulfonyl)benzamide]
35	Cc1cc(C(=O)NS(C)(=O)=O)c(F)cc1Oc1ccc(Cl)c(C(F)(F)F)c1 [Example 8, 4-[4-chloro-3-(trifluoromethyl)phenoxy]-2-fluoro-5-methyl-N-(methylsulfonyl)benzamide]
